Measured values published in patent US20070225364A1, “Use of bismuth subgallate and borneol in treating melanoma” (HEDONIST BIOCHEMICAL TECHNOLOGIES CO., LTD., priority 2006, published 2007).
Values joined by “and” are separate entries in the source; they are usually repeats but may differ in a detail not shown here. Equal values may be shown once.

Experiments:
[1] = tested on: A375 human melanoma cells; assay: Cytotoxicity assay (MTT relative viability), A375 cells; format: cell-based; conditions: BSG and BO applied together, 72 hours, FIGS. 1A and 1B
Procedure: (§1) A375 human melanoma cells (obtained from Food Industry Research and Development Institute, Hsinchu, Taiwan, R.O.C. under accession number CCRC 60039) and normal human keratinocyte (HaCaT) cells (obtained from Dr. Lin P., Institute of Medical & Molecular Toxicology, Chung Shan Medical University, Taichung, Taiwan) were used for the test.
(§2) A375 and HaCaT cells were incubated in 96-well plates (Corning Incorporated COSTAR® 3599) at a density of 3×10^3 cells/well and 5×10^3 cells/well, respectively. After 24 hours, the cells were treated with various concentrations of bismuth subgallate (BSG) and borneol (BO) for 72 hours. The cytotoxicity effect of BSG and BO was estimated by the relative viability (%) of the cells, which was determined by measuring the reduction of tetrazolium salt MTT using a Microplate reader (Thermo Lab systems Multishkan Spectrum) at a test wavelength of 550 nm and a reference wavelength of 690 nm. The relative viability is calculated by the following equation: Relative Viability(%)=ODtestODcontrol×100 The results are represented by the means plus standard errors (Mean±SE) of five repetitions.

[2] = tested on: normal human keratinocyte (HaCaT) cells; assay: Cytotoxicity assay (MTT relative viability), HaCaT cells; format: cell-based; conditions: BSG and BO applied together, 72 hours, FIG. 2
Procedure: as §1, §2

Compound | lowest concentration at which reduction of relative viability of A375 cells is observed [1] [µg/mL] | concentrations at which cytotoxicity effect on HaCaT cells is observed (only at high concentrations) [2]
CC1(C)C2CCC1(C)C(O)C2 (stereo not drawn) [BO, borneol] | 2.5 | –
bismuth subgallate [BSG] | 17.5 | 140 µg/mL and 280 µg/mL
